Data as given in ChEMBL document CHEMBL1152396, “Cardenolides from Pergularia tomentosa display cytotoxic activity resulting from their potent inhibition of Na+/K+-ATPase” (J Nat Prod, 2009).
Active and inactive are the calls of the source. The calls are words filed in the database; no cut-off is given here.

How the values were obtained:
BXPC-3 = assay: Antiproliferative activity against human BxPC3 cells after 72 hrs by MTT assay; type: functional, cell-based; conditions: BXPC-3, 72 h
LoVo = assay: Antiproliferative activity against human LoVo cells after 72 hrs by MTT assay; type: functional, cell-based
A549 [1] = assay: Antiproliferative activity against human A549 cells after 72 hrs by MTT assay; type: functional, cell-based; conditions: A549, 72 h
MCF7 = assay: Antiproliferative activity against human MCF7 cells after 72 hrs by MTT assay; type: functional, cell-based; conditions: MCF7, 72 h
PC-3 = assay: Antiproliferative activity against human PC3 cells after 72 hrs by MTT assay; type: functional, cell-based; conditions: PC-3, 72 h
[2] = Antiproliferative activity against human U373 cells after 72 hrs by MTT assay; type: functional, cell-based, U-373MG ATCC; conditions: U373 MG
[3] = Inhibition of pig cerebral cortex Na+/K+-ATPase by colorimetric microplate-based assay; type: tissue-based, Sus scrofa
Sus scrofa = species on record: Sus scrofa; assay: Inhibition of pig cerebral cortex Na+/K+ ATPase at 1 mM by colorimetric microplate-based assay; type: tissue-based
A549 [4] = assay: Induction of human A549 cell growth delay assessed as morphological changes at 800 nM after 3 days by video microscopy; type: functional, cell-based
A549 [5] = assay: Induction of human A549 cell death assessed as morphological changes at 800 nM after 3 days by video microscopy; type: functional, cell-based
U-373MG ATCC [6] = assay: Induction of human U373 cell death assessed as morphological changes at 3.4 uM after 3 days by video microscopy; type: functional, cell-based
U-373MG ATCC [7] = assay: Induction of human U373 cell growth delay assessed as morphological changes at 3.4 uM after 3 days by video microscopy; type: functional, cell-based
A549 [8] = assay: Induction of human A549 cell growth delay assessed as morphological changes at 80 nM after 3 days by video microscopy; type: functional, cell-based
U-373MG ATCC [9] = assay: Induction of human U373 cell growth delay assessed as morphological changes at 400 nM after 3 days by video microscopy; type: functional, cell-based
A549 [10] = assay: Induction of human A549 cell death assessed as morphological changes at 80 nM after 3 days by video microscopy; type: functional, cell-based
U-373MG ATCC [11] = assay: Induction of human U373 cell death assessed as morphological changes at 400 nM after 3 days by video microscopy; type: functional, cell-based
A549 [12] = assay: Induction of human A549 cell death assessed as morphological changes at 200 nM after 3 days by video microscopy; type: functional, cell-based
A549 [13] = assay: Induction of human A549 cell growth delay assessed as morphological changes at 200 nM after 3 days by video microscopy; type: functional, cell-based

Row | SMILES | IC50 (BXPC-3) | IC50 (LoVo) | IC50 (A549 [1]) | IC50 (MCF7) | IC50 (PC-3) | IC50 [2] | IC50 [3] | inhibition (Sus scrofa) | Activity (A549 [4]) | Activity (A549 [5]) | Activity (U-373MG ATCC [6]) | Activity (U-373MG ATCC [7]) | Activity (A549 [8]) | Activity (U-373MG ATCC [9]) | Activity (A549 [10]) | Activity (U-373MG ATCC [11]) | Activity (A549 [12]) | Activity (A549 [13])
1 | C[C@@H]1C[C@@H](O)[C@]2(O)O[C@@H]3C[C@@]4(CO)[C@@H](CC[C@@H]5[C@@H]4C[C@@H](O)[C@]4(C)[C@@H](C6=CC(=O)OC6)CC[C@]54O)C[C@H]3O[C@@H]2O1 | 300 nM | 300 nM | 50 nM | 300 nM | 50 nM | 400 nM | 700 nM |  |  |  |  |  |  |  |  |  |  | 
2 | C[C@@H]1O[C@@H](O[C@H]2C[C@@H](O)[C@]3(CO)[C@H]4[C@H](O)C[C@]5(C)[C@@H](C6=CC(=O)OC6)CC[C@]5(O)[C@@H]4CC[C@]3(O)C2)[C@H](O)[C@H](O)[C@H]1O |  |  |  |  |  |  |  | 100% |  |  |  |  |  |  |  |  |  | 
3 | C[C@]12CC[C@H]3[C@@H](CC[C@H]4C[C@H]5O[C@@H]6O[C@H](CO)C[C@@H](O)[C@]6(O)O[C@@H]5C[C@@]43CO)[C@@]1(O)CC[C@@H]2C1=CC(=O)OC1 | 300 nM | 200 nM | 40 nM | 400 nM | 40 nM | 100 nM | 400 nM |  |  |  |  |  |  |  |  |  |  | 
4 | CC(=O)O[C@@H]1C[C@]2(O)[C@@H]3CC[C@H]4C[C@H]5O[C@@H]6O[C@H](CO)C[C@@H](O)[C@]6(O)O[C@@H]5C[C@]4(C=O)[C@H]3CC[C@]2(C)[C@H]1C1=CC(=O)OC1 | 4400 nM | 6400 nM | 800 nM | 4100 nM | 1200 nM | 3400 nM | 1200 nM |  | Active | Active | Active | Active |  |  |  |  |  | 
5 | C[C@]12CC[C@H]3[C@@H](CC[C@H]4C[C@H]5O[C@@H]6O[C@H](CO)C[C@@H](O)[C@]6(O)O[C@@H]5C[C@@]43C=O)[C@@]1(O)CC[C@@H]2C1=CC(=O)OC1 | 600 nM | 900 nM | 80 nM | 500 nM | 300 nM | 400 nM | 500 nM |  |  |  |  |  |  |  |  |  |  | 
6 | C[C@@H]1CC2(NC(=O)CS2)[C@]2(O)O[C@@H]3C[C@@]4(CO)[C@@H](CC[C@@H]5[C@@H]4CC[C@]4(C)[C@@H](C6=CC(=O)OC6)CC[C@]54O)C[C@H]3O[C@@H]2O1 (stereo not given in full) |  |  | 8 nM |  |  |  |  |  |  |  |  |  |  |  |  |  |  | 
7 | C[C@]12[C@H](O)C[C@H]3[C@@H](CC[C@H]4C[C@H]5O[C@@H]6O[C@H](CO)C[C@@H](O)[C@]6(O)O[C@@H]5C[C@@]43CO)[C@@]1(O)CC[C@@H]2C1=CC(=O)OC1 [GHALAKINOSIDE] | 300 nM | 300 nM | 80 nM | 300 nM | 80 nM | 400 nM | 300 nM |  |  |  |  |  | Active | Active | Active | Active |  | 
8 | C[C@@H]1C[C@@H](O)[C@]2(O)O[C@@H]3C[C@@]4(C=O)[C@@H](CC[C@@H]5[C@@H]4CC[C@]4(C)[C@@H](C6=CC(=O)OC6)[C@H](O)C[C@]54O)C[C@H]3O[C@@H]2O1 | 2300 nM | 4400 nM | 400 nM | 3800 nM | 1000 nM | 2600 nM | 1700 nM |  |  |  |  |  |  |  |  |  |  | 
9 | C[C@@H]1C[C@@H](O)[C@]2(O)O[C@@H]3C[C@@]4(C=O)[C@@H](CC[C@@H]5[C@@H]4CC[C@]4(C)[C@@H](C6=CC(=O)OC6)CC[C@]54O)C[C@H]3O[C@@H]2O1 [CALACTIN] | 80 nM | 50 nM | 20 nM | 40 nM | 20 nM | 200 nM | 400 nM |  |  |  |  |  |  |  |  |  |  | 
10 | C[C@@H]1C[C@@H](O[C@H]2O[C@H](CO)[C@@H](O)[C@H](O)[C@H]2O)[C@]2(O)O[C@@H]3C[C@@]4(C=O)[C@@H](CC[C@@H]5[C@@H]4CC[C@]4(C)[C@@H](C6=CC(=O)OC6)CC[C@]54O)C[C@H]3O[C@@H]2O1 | 500 nM | 400 nM | 200 nM | 300 nM | 200 nM | 400 nM | 500 nM |  |  |  |  |  |  | Active |  | Active | Active | Active
